The subject of the assay is Hong Kong/2369/2009 (H1N1) H275Y oseltamivir resistant. Type of assay: cell-based, influenza virus.

The source of these data is patent US20130023585A1, “Neuraminidase Inhibitors” (TSRL, INC., priority 2010, published 2013).

Structures are written as SMILES.

Turning to `CCC(CC)O[C@@H]1C=C(C(=O)O)C[C@H](NC(=N)N)[C@H]1NC(C)=O` [GOC, 4-guanidinio oseltamivir carboxylate], the “activity against the Oseltamivir resistant strain” value is reported as “remains active”. Besides, the EC50 (read-out: 50% effective concentration (EC50)) stood at 1700 nM.
